Counter-ions that a name gives are not always drawn.
Each molecule was assayed against T1, human LPA1 (Homo sapiens, UniProt Q92633) (assay: LPA1 functional antagonist assay (calcium flux)). Conditions: CHO cells overexpressing human LPA1; calcium flux induced by 10 nM LPA; read-out: hLPA1 IC50.
T1 construct: expressed in transfected cells; host or cells: Chinese hamster ovary (CHO) cells
Type: cell-based
Experimental: The effectiveness of compounds of the present invention as LPA1 inhibitors can be determined in an LPA1 functional antagonist assay as follows:
The cells were then equilibrated to room temperature for 30 minutes before the assay. […] IC50 values were determined by fitting data to a 4-parameter logistic equation (GraphPad Prism, San Diego Calif.).

T1 sequence (Q92633 whole entry): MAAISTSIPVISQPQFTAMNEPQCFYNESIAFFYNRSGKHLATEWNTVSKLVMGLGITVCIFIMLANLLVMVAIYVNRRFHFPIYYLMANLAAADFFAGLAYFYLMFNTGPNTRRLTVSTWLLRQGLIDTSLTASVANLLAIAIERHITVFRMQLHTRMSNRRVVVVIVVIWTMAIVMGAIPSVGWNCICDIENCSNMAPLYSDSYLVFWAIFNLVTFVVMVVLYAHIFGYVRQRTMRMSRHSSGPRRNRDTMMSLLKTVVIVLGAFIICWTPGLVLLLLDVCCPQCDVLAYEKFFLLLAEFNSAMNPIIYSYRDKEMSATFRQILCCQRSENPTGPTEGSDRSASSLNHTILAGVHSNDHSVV

SMILES	IC50
Cc1nc(-c2nnn(C)c2CNC(=O)OCc2cc(F)cc(F)c2)ccc1O[C@H]1CCC[C@H](C(=O)O)C1 [Example 8, (1S,3S)-3-((6-(5-(((((3,5-difluorobenzyl)oxy)carbonyl)amino)methyl)-1-methyl-1H-1,2,3-triazol-4-yl)-2-methylpyridin-3-yl)oxy)cyclohexane-1-carboxylic acid]	5 nM
Cc1nc(-c2nnn(C)c2CNC(=O)OCc2cccc(F)c2)ccc1O[C@H]1CCC[C@H](C(=O)O)C1 [Example 11, (1S,3S)-3-((6-(5-(((((3-fluorobenzyl)oxy)carbonyl)amino)methyl)-1-methyl-1H-1,2,3-triazol-4-yl)-2-methylpyridin-3-yl)oxy)cyclohexane-1-carboxylic acid]	6 nM
Cc1nc(-c2nnn(C)c2CCNC(=O)CCC(C)C)ccc1O[C@H]1CCC[C@H](C(=O)O)C1 [Example 240]	1010 nM
CC(C)COC(=O)NCc1c(-c2ccc(O[C@H]3CCC[C@H](C(=O)O)C3)c(C(F)(F)F)n2)nnn1C [Example 93, (1S,3S)-3-((6-(5-(((isobutoxy-carbonyl)amino)methyl)-1-methyl-1H-1,2,3-triazol-4-yl)-2-(trifluoro-methyl)pyridin-3-yl)oxy)cyclohexane-1-carboxylic acid]	25 nM
Cn1nnc(-c2ccc(O[C@H]3CCC[C@H](C(=O)O)C3)cn2)c1CNC(=O)CC1CCCC1 [Example 236, (1S,3S)-3-((6-(5-((2-cyclopentylacetamido)methyl)-1-methyl-1H-1,2,3-triazol-4-yl)pyridin-3-yl)oxy)cyclohexanecarboxylic acid]	569 nM
Cn1nnc(-c2ccc(O[C@@H]3CCC[C@@H](C(=O)O)C3)cc2)c1CNC(=O)OCc1ccccc1 (racemic) [Example 40, (±)-trans-3-(4-(5-((((benzyloxy)carbonyl)amino)methyl)-1-methyl-1H-1,2,3-triazol-4-yl)phenoxy)cyclohexane-1-carboxylic acid]	664 nM
CCCOC(=O)NCc1c(-c2ccc(O[C@H]3CCC[C@H](C(=O)O)C3)c(C(F)F)n2)nnn1C [Example 101, (1S,3S)-3-((2-(difluoromethyl)-6-(1-methyl-5-(((propoxycarbonyl)amino)methyl)-1H-1,2,3-triazol-4-yl)pyridin-3-yl)oxy)cyclohexane-1-carboxylic acid]	2030 nM
Cc1nc(-c2nnn(C)c2CCNC(=O)OC2CCCC2)ccc1O[C@H]1CCC[C@H](C(=O)O)C1 [Example 105, (1S,3S)-3-((6-(5-(2-(((cyclopentyl-oxy)carbonyl)amino)ethyl)-1-methyl-1H-1,2,3-triazol-4-yl)-2-methyl-pyridin-3-yl)oxy)cyclohexane-1-carboxylic acid]	1830 nM
CCCOC(=O)NCc1c(-c2ccc(O[C@H]3CCC[C@H](C(=O)O)C3)c(C(F)(F)F)n2)nnn1C [Example 95, (1S,3S)-3-((6-(1-methyl-5-(((propoxy-carbonyl)amino)methyl)-1H-1,2,3-triazol-4-yl)-2-(trifluoromethyl)pyridin-3-yl)oxy)cyclohexane-1-carboxylic acid]	867 nM
Cc1nc(-c2nnn(C)c2CNC(=O)OCC2CC2(F)F)ccc1OC1CCCC(C(=O)O)C1 (single isomer, unassigned) [Example 207]	44 nM
Cc1nc(-c2nnn(C)c2NC(=O)OCC2(C)CC2)ccc1O[C@H]1CCC[C@H](C(=O)O)C1 [Example 224, (1S,3S)-3-((2-methyl-6-(1-methyl-5-((((1-methylcyclopropyl)methoxy)carbonyl)amino)-1H-1,2,3-triazol-4-yl)pyridin-3-yl)oxy)cyclohexane-1-carboxylic acid]	60 nM
Cc1nc(-c2nnn(C)c2CNC(=O)N(C)CCC(C)C)ccc1O[C@H]1CCC[C@H](C(=O)O)C1 [Example 116, (1S,3S)-3-((6-(5-((3-isopentyl-3-methyl-ureido)methyl)-1-methyl-1H-1,2,3-triazol-4-yl)-2-methylpyridin-3-yl)oxy)cyclohexane-1-carboxylic acid]	92 nM
Cn1nnc(-c2ccc(O[C@H]3CCC[C@H](C(=O)O)C3)cn2)c1NC(=O)OCC1CCC1 [Example 81]	56 nM
Cc1nc(-c2nnn(C)c2CNS(=O)(=O)N(C)CC2CCCC2)ccc1O[C@H]1CCC[C@H](C(=O)O)C1 [Example 137, (1S,3S)-3-((6-(5-(((N-(cyclopentylmethyl)-N-methylsulfamoyl)amino)methyl)-1-methyl-1H-1,2,3-triazol-4-yl)-2-methylpyridin-3-yl)oxy)cyclohexane-1-carboxylicacid]	167 nM
Cc1nc(-c2nnn(C)c2CNC(=O)NC(CF)c2ccccc2)ccc1O[C@H]1CCC[C@H](C(=O)O)C1 (mixture of isomers) [Example 121, (1S,3S)-3-((6-(5-((3-(2-fluoro-1-phenyl-ethyl)ureido)methyl)-1-methyl-1H-1,2,3-triazol-4-yl)-2-methylpyridin-3-yl)oxy)cyclohexane-1-carboxylic acid]	555 nM
Cn1nnc(-c2ccc(O[C@H]3CCC[C@H](C(=O)O)C3)cn2)c1CNC(=O)OCc1cccc(F)c1 [Example 12, (1S,3S)-3-((6-(5-(((((3-fluorobenzyl)oxy)carbonyl)amino)methyl)-1-methyl-1H-1,2,3-triazol-4-yl)pyridin-3-yl)oxy)cyclohexane-1-carboxylic acid]	23 nM
Cc1nc(-c2nnn(C)c2CNS(=O)(=O)NCc2ccccc2)ccc1O[C@H]1CCC[C@H](C(=O)O)C1 [Example 227, (1S,3S)-3-((6-(5-(((N-benzyl-sulfamoyl)amino)methyl)-1-methyl-1H-1,2,3-triazol-4-yl)-2-methyl-pyridin-3-yl)oxy)cyclohexane-1-carboxylic acid]	1800 nM
Cc1nc(-c2nnn(C)c2NC(=O)OCC2CCC2)ccc1O[C@H]1CCC[C@H](C(=O)O)C1 [Example 75]	22 nM
CC(C)CCOC(=O)Nc1c(-c2ccc(O[C@H]3CCC[C@H](C(=O)O)C3)cn2)nnn1C [Example 85, (1S,3S)-3-((6-(5-(((isopentyloxy)carbonyl)amino)-1-methyl-1H-1,2,3-triazol-4-yl)pyridin-3-yl)oxy)cyclohexane-1-carboxylic acid]	115 nM
Cc1nc(-c2nnn(C)c2CNC(=O)N(C)C(C)C(C)C)ccc1O[C@H]1CCC[C@H](C(=O)O)C1 (single isomer, unassigned) [Example 125]	1210 nM
CCCCOC(=O)NCc1c(-c2ccc(O[C@H]3CCC[C@H](C(=O)O)C3)c(C)n2)nnn1C [Example 3, (1S,3S)-3-((6-(5-(((butoxycarbonyl)amino)methyl)-1-methyl-1H-1,2,3-triazol-4-yl)-2-methylpyridin-3-yl)oxy)cyclohexane-1-carboxylic acid]	14 nM
Cc1nc(-c2nnn(C)c2CN(C)C(=O)N(C)Cc2ccccc2)ccc1O[C@H]1CCC[C@H](C(=O)O)C1 [Example 115, (1S,3S)-3-((6-(5-((3-benzyl-1,3-dimethylureido)methyl)-1-methyl-1H-1,2,3-triazol-4-yl)-2-methyl-pyridin-3-yl)oxy)cyclohexane-1-carboxylic acid]	166 nM

Same assay, conditions: human LPA1 functional antagonist assay; read-out: hLPA1 IC50

SMILES	IC50
Cc1nc(-c2nnn(C)c2CN(C)C(=O)OCC2CC2)ccc1O[C@H]1CCC[C@H](C(=O)O)C1 [Example 205, (1S,3S)-3-((6-(5-((((cyclopropylmethoxy)carbonyl)(methyl)amino)methyl)-1-methyl-1H-1,2,3-triazol-4-yl)-2-methyl-pyridin-3-yl)oxy)cyclohexane-1-carboxylic acid, TFA salt]	333 nM
Cc1nc(-c2nnn(C)c2CNC(=O)OCC(C)CC(F)(F)F)cnc1O[C@H]1CCC[C@H](C(=O)O)C1 (stereo partly drawn) [Example 155, (1S,3S)-3-((3-methyl-5-(1-methyl-5-((((4,4,4-trifluoro-2-methylbutoxy)carbonyl)amino)methyl)-1H-1,2,3-triazol-4-yl)pyrazin-2-yl)oxy)cyclohexane-1-carboxylic acid]	85 nM
Cc1nc(-c2nnn(C)c2CNC(=O)OCCC2CC2)cnc1O[C@H]1CCC[C@H](C(=O)O)C1 [Example 160, (1S,3S)-3-((5-(5-((((2-cyclopropylethoxy)carbonyl)amino)methyl)-1-methyl-1H-1,2,3-triazol-4-yl)-3-methylpyrazin-2-yl)oxy)cyclo-hexane-1-carboxylic acid]	66 nM
Cc1nc(-c2nnn(C)c2CNC(=O)O[C@@H](C)C(F)(F)F)ccc1O[C@H]1CCC[C@H](C(=O)O)C1 [Example 174, (1S,3S)-3-((2-methyl-6-(1-methyl-5-((((((S)-1,1,1-trifluoropropan-2-yl)oxy)carbonyl)amino)methyl)-1H-1,2,3-triazol-4-yl)pyridin-3-yl)oxy)cyclohexane-1-carboxylic acid]	101 nM
Cc1nc(-c2nnn(C)c2CNC(=O)OCCCC(F)(F)F)ccc1O[C@H]1CCC[C@H](C(=O)O)C1 [Example 169, (1S,3S)-3-((2-methyl-6-(1-methyl-5-((((4,4,4-trifluorobutoxy)carbonyl)amino)methyl)-1H-1,2,3-triazol-4-yl)pyridin-3-yl)oxy)cyclohexane-1-carboxylic acid]	55 nM
Cc1nc(-c2nnn(C)c2CNC(=O)OCC(C)C(F)(F)F)ccc1O[C@H]1CCC[C@H](C(=O)O)C1 (mixture of isomers) [Example 204, (1S,3S)-3((2-methyl-6-(1-methyl-5-((((3,3,3-trifluoro-2-methylpropoxy)carbonyl)amino)methyl)-1H-1,2,3-triazol-4-yl)pyridin-3-yl)oxy)cyclohexane-1-carboxylic acid]	96 nM
Cc1nc(-c2nnn(C)c2CNC(=O)OCCC(F)(F)F)ccc1O[C@H]1CCC[C@H](C(=O)O)C1 [Example 181, (1S,3S)-3-((2-methyl-6-(1-methyl-5-((((3,3,3-trifluoropropoxy)carbonyl)amino)methyl)-1H-1,2,3-triazol-4-yl)pyridin-3-yl)oxy)cyclohexane-1-carboxylic acid]	96 nM
